Data set [1] concerns GTPase KRas (Homo sapiens), P01116 [G12C]. As to the kind of experiment: Inhibition of KRAS G12C mutant (unknown origin) at 10 uM relative to control.
Data set [2] addresses GTPase KRas (Homo sapiens, UniProt P01116, G12C). As to the kind of experiment: Inhibition of KRAS G12C mutant (unknown origin).
Data set [3] is described as follows: Clearance in iv dosed CD-1 mouse. Format: ADME, organism-based. Conditions: in vivo.
A short description of data set [4]: Volume of distribution at steady state in iv dosed CD-1 mouse. It counts as ADME, organism-based. The note with it: in vivo, read-out: Vdss.
Data set [5] can be described thus: Volume of distribution at steady state in iv dosed Sprague-Dawley rat by LC-MS/MS analysis. It counts as ADME, organism-based. The note with it: in vivo, read-out: Vdss.
The nature of data set [6]: Volume of distribution at steady state in iv dosed Beagle dog. Format: ADME, organism-based, Canis lupus familiaris. Conditions: in vivo, read-out: Vdss.
Data set [7] in a line: Oral bioavailability in CD-1 mouse. Conditions: in vivo. It counts as ADME, organism-based.
Data set [8] in a line: Oral bioavailability in Sprague-Dawley rat. It counts as ADME, organism-based. The note with it: in vivo.
The nature of data set [9]: Oral bioavailability in Beagle dog. Format: ADME, organism-based, Canis lupus familiaris. Conditions: in vivo.
The nature of data set [10]: Inhibition of ERK phosphorylation in human NCI-H358 cells incubated for 3 hrs. Format: cell-based. Conditions: NCI-H358, 3 h.
The next data set has as its system NCI-H441. As to the kind of experiment: Antiproliferative activity against human NCI-H441 cells harboring KRAS G12V mutant assessed as reduction in cell viability incubated for 72 hrs by MTT assay. Conditions: NCI-H441, 72 h. It counts as functional, cell-based. Background: Tetrazolium dyes change colour on reduction, which living cells bring about.
Data set [11] is described as follows: Inhibition of ERK phosphorylation in human NCI-H358 cells harboring KRAS G12C mutant incubated for 6 hrs by Western blot analysis. Conditions: NCI-H358, 6 h. Format: cell-based. Background: A western blot detects proteins with antibodies after separation by electrophoresis.
Data set [12] concerns the target GTPase KRas (Homo sapiens, UniProt P01116, G12V). As to the kind of experiment: Binding affinity to Cys12 residue of GDP bound human KRAS […] mutant expressed in Escherichia coli BL21 Rosetta cells assessed as dissociation constant by HSQC NMR spectral analysis.
Data set [13] deals with von Hippel-Lindau disease tumor suppressor/GTPase KRas (Homo sapiens, UniProt P01116+P40337, G12C). As to the kind of experiment: Protac activity at VHL/KRAS G12C mutant in human NCI-H2030 cells assessed as degradation of KRAS G12C mutant incubated for 24 hrs by immunoblot assay. It counts as cell-based.
The subject of data set [14] is von Hippel-Lindau disease tumor suppressor/GTPase KRas (Homo sapiens), P01116+P40337 [G12C]. As to the kind of experiment: Protac activity at VHL/KRAS G12C mutant in human SW1573 cells assessed as induction of protein degradation by measuring maximal efficacy at […] incubated for 72 hrs by Western blot analysis relative to control. It counts as cell-based. The note with it: dose 2.5 µM.

For data set [15] the test system is unchanged. As to the kind of experiment: PROTAC activity at VHL/KRAS G12C mutant in human NCI-H2030 cells assessed as induction of protein degradation by measuring maximal efficacy at […] incubated for 24 hrs by Immunoblotting analysis relative to control. Format: cell-based. Conditions: dose 2.5 µM.
The next data set is described as follows: cells. Conditions: Homo sapiens, MKN-1.
For data set [16], the system named is NCI-H358. As to the kind of experiment: Antitumor activity against human NCI-H358 cells harboring KRAS G12C mutant xenografted in mouse model assessed as tumor growth inhibition at 10 mg/kg, po relative to control. Format: functional. Set-up: scale not given: the % may be the effect or the level left.
The subject of data set [17] is NCI-H358. As to the kind of experiment: Antitumor activity against human NCI-H358 cells harboring KRAS G12C mutant xenografted in mouse model assessed as tumor growth inhibition at 30 mg/kg, po relative to control. Format: functional. Set-up: scale not given: the % may be the effect or the level left. Background: Xenograft models place foreign cells or tissue in a host animal.

In data set [18] the test system is NCI-H358. As to the kind of experiment: Antitumor activity against human NCI-H358 cells harboring KRAS G12C mutant xenografted in mouse model assessed as tumor growth inhibition at 100 mg/kg, po relative to control. It counts as functional. Set-up: scale not given: the % may be the effect or the level left.

As usually defined, the inhibition is the share of the control response that was lost under treatment. One may read the pIC50 as −log10 of the IC50, conventionally taken in molar units. In general, clearance refers to a measure of how efficiently the substance is removed, as volume per time. In general, bioavailability refers to dose-corrected exposure relative to a reference, in per cent. As usually defined, the pKd is the Kd on a negative log10 scale, so that one unit is a factor of ten. For orientation: DC50 means the concentration at which degradation of the target reaches its halfway point. Usually Emax stands for the maximal effect, on the per cent scale that the assay sets.

pIC50, pKd: −log10 of the molar value.

In turn, `C=CC(=O)N1CCN(c2nc(OCC34CCCN3CCC4)nc3c2cc(-c2cccc4cccc(C)c24)n3C)C[C@@H]1CC#N` returned an inhibition in data set [1] of 91.3%. This molecule showed a negative logarithm of the IC50 (pIC50) on GTPase KRas [2] of 5.81.

`Cc1c(C#N)cccc1[C@@H](C)Nc1nnc(C)c2cnc(N3CCOCC3)cc12` [MRTX-0902]: the clearance in data set [3] is 0.264 L/h/kg. The Vd in [4], in [5] and in data set [6] was 0.28 L/kg in each case. Also, the bioavailability in data set [7], in [8] and in [9] was 38% in each case.

In [10], `C=CC(=O)N1CCN(c2nc(OC[C@@H]3CCCN3C)nc3c2CCN(c2cccc4ccccc24)C3)C[C@@H]1CC#N` had a pIC50 of 8.00.

For the molecule `C=CC(=O)N1CCN(c2nc(OC[C@@H]3CCCN3C)nc3c2cc(-c2cccc4cccc(C)c24)n3C)C[C@@H]1CC#N`, the inhibition in data set [1] is 39.8%.

Regarding `CC1(C)CCCc2sc(N)c(C#N)c21`, the pIC50 in the data set on NCI-H441 was above 5.00.

`C=CC(=O)N1CC2(CC(n3nc(-c4ccc5c(cnn5C)c4)c(-c4c(Cl)c(C)cc5[nH]ncc45)c3C)C2)C1` [OPNURASIB] gave a pIC50 in data set [11] of 7.70.

Regarding `C=CC(=O)N1CCN(c2nc(OC[C@@]34CCCN3C[C@H](F)C4)nc3c2cc(-c2cccc4cccc(C)c24)n3C)C[C@@H]1CC#N`, in data set [1], the inhibition was 98.6%. In addition, on GTPase KRas [2], the negative-log IC50 (pIC50) is 6.47.

In the case of `C[C@]1(c2nc(-c3ccc(N)cc3)no2)CCCc2sc(N)c(C#N)c21`, the pKd on GTPase KRas [12] is above 5.00.

`C=CC(=O)N1CC2(CC(n3nc(-c4ccc5[nH]ncc5c4)c(-c4c(Cl)c(C)cc5[nH]ncc45)c3C)C2)C1` gave a pIC50 in data set [11] of 7.70.

As to `C=CC(=O)N1CC2(CC(n3nc(C(C)C)c(-c4c(C)ccc5[nH]ncc45)c3C)C2)C1`, the negative-log IC50 (pIC50) in data set [11] is 5.41.

`C=C(F)C(=O)N1CCN(c2nc(OC[C@@H]3CCCN3CCCOCCC(=O)N[C@H](C(=O)N3C[C@H](O)C[C@H]3C(=O)NCc3ccc(-c4scnc4C)cc3)C(C)(C)C)nc3c2CCN(c2cccc4cccc(Cl)c24)C3)C[C@@H]1CC#N`: in [13], the DC50 is 0.59 µM. Also, the values for the maximal effect (Emax) in data set [14] and in [15] were 90% and 75%, respectively.

`C=C(F)C(=O)N1CCN(c2nc(OC[C@@H]3CCCN3CCC(=O)NCCC(=O)N[C@H](C(=O)N3C[C@H](O)C[C@H]3C(=O)NCc3ccc(-c4scnc4C)cc3)C(C)(C)C)nc3c2CCN(c2cccc4cccc(Cl)c24)C3)C[C@@H]1CC#N`: the DC50 in data set [13] worked out at 6.4 µM. In addition, the Emax in data set [15] came out at 85%.

In turn, `Cc1c([C@@H](C)Nc2nnc(C)c3cnc(N4CCOCC4)cc23)cccc1C(F)(F)F` had a pIC50 in “cells” of 7.59.

In the case of `C=C(F)C(=O)N1CCN(c2nc(OC[C@@H]3CCCN3CCC(=O)NCCOCCOCCC(=O)N[C@H](C(=O)N3C[C@H](O)C[C@H]3C(=O)NCc3ccc(-c4scnc4C)cc3)C(C)(C)C)nc3c2CCN(c2cccc4cccc(Cl)c24)C3)C[C@@H]1CC#N`, in data set [15], the Emax worked out at 30%.

As for `N#Cc1c(N)sc2c1CCCC2`, the pIC50 in the data set on NCI-H441 was 4.80.

In turn, `C=CC(=O)N1CCN(c2nc(OC[C@@H]3CCCN3C)nc3c2cc(-c2cccc4ccccc24)n3C)C[C@@H]1CC#N` registered an inhibition in data set [1] of 17%.

In the case of `C=C(F)C(=O)N1CCN(c2nc(OC[C@@H]3CCCN3CCCCOCCC(=O)N[C@H](C(=O)N3C[C@H](O)C[C@H]3C(=O)NCc3ccc(-c4scnc4C)cc3)C(C)(C)C)nc3c2CCN(c2cccc4cccc(Cl)c24)C3)C[C@@H]1CC#N`, in [13], the DC50 was found to be 0.88 µM. Further, the Emax in data set [14] was determined as 90%.

Turning to `C=C(F)C(=O)N1CCN(c2nc(OC[C@@H]3CCCN3CCOCCOCCC(=O)N[C@H](C(=O)N3C[C@H](O)C[C@H]3C(=O)NCc3ccc(-c4scnc4C)cc3)C(C)(C)C)nc3c2CCN(c2cccc4cccc(Cl)c24)C3)C[C@@H]1CC#N`, the DC50 in data set [13] is above 10 µM. In data set [14], the Emax came out at 50%.

With `C=CC(=O)N1CCN(c2nc(OC[C@@H]3CCCN3C)nc3c2CCN(c2cccc4cccc(Cl)c24)C3)C[C@@H]1CC#N`, the Activity in the data set on NCI-H358 [16] is 70%; in the data set with NCI-H358 [17], 89%; with NCI-H358 [18], 90%.

For the molecule `C=CC(=O)N1CCN(c2nc(OC[C@@H]3CCCN3C)nc3c2CCN(c2cccc4ccccc24)C3)CC1`, the pIC50 in [10] was 5.36.

Consider `C[C@]1(c2nc(-c3cccc(N)c3)no2)CCCc2sc(N)c(C#N)c21`, for which the negative-log Kd (pKd) on GTPase KRas [12] is above 5.00.

For `C=C(F)C(=O)N1CCN(c2nc(OC[C@@H]3CCCN3CCC(=O)NCCOCCC(=O)N[C@H](C(=O)N3C[C@H](O)C[C@H]3C(=O)NCc3ccc(-c4scnc4C)cc3)C(C)(C)C)nc3c2CCN(c2cccc4cccc(Cl)c24)C3)C[C@@H]1CC#N`, the Emax in [15] amounted to 35%.

`Cc1c([C@@H](C)Nc2nnc(C)c3ccc(N4CCNCC4)cc23)cccc1C(F)(F)F` gave a negative-log IC50 (pIC50) in the data set “cells” of 7.13.

On to `C=CC(=O)N1CC2(CC(n3nc(-c4ccccc4)c(-c4c(Cl)c(C)cc5[nH]ncc45)c3C)C2)C1`, for which, in [11], the negative logarithm of the IC50 (pIC50) is 7.40.

Values taken from ChEMBL document CHEMBL5634082, “Recent advances in the development of inhibitors targeting KRAS-G12C and its related pathways” (Eur J Med Chem, 2023).
